Experiments:
[1] = system: p-ERK in GP2D cells; assay: Assay of p-ERK inhibition in GP2D cells (HTRF); format: cell-based; conditions: Homo sapiens, 1 hour incubation
Description: 2. Assay Process • 1) GP2D cells were inoculated in a transparent 96-well cell culture plate, and each well contained 80 μL of cell suspension and 8000 cells. The cell plate was inoculated in a carbon dioxide incubator at 37° C. overnight; • 2) 2 μL of the compound was weighed and added to 78 μL of the cell medium. After the mixture was mixed thoroughly, 20 μL of the solution of compound was weighed and added to the corresponding well of the cell plate. The cell plate was placed back to the carbon dioxide incubator and incubated for another 1 hour; • 3) After completion of the incubation, the cell supernatant was discarded. 50 μL of 1× cell lysate was added to each well. The mixture was incubated with shaking at room temperature for 30 minutes; • 4) Phospho-ERK1/2 Eu Cryptate antibody and Phospho-ERK1/2 d2 antibody were diluted 20-fold with detection buffer; • 5) 16 μL of cell lysate supernatant was weighed and added into each well of a new 384 white microwell plate, and then 2 μL of the diluted solution of Phospho-ERK1/2 Eu Cryptate antibody and 2 μL of the diluted solution of Phospho-ERK1/2 d2 antibody dilution were added. The mixture was incubated at room temperature for at least 4 hours; • 6) After completion of the incubation, HTRF was read with multi-label analyzer: excitation: 320 nm, emission: 615 nm, 665 nm; • 7). IC50 of the compounds to be assayed was calculated.

[2] = target: KRAS^G12D binding to c-Raf (Homo sapiens (Human), UniProt P01116, G12D); assay: SOS1-mediated binding of KRAS^G12D to effector protein c-Raf (TR-FRET); format: biochemical
Chain of KRAS^G12D binding to c-Raf (P01116-2 other isoform, or with tags, fused parts or gaps G12D): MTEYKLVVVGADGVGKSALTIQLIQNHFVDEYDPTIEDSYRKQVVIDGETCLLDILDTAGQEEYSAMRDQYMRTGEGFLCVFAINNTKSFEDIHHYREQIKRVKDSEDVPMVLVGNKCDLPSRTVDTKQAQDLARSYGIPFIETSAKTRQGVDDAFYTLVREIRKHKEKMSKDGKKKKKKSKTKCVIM

[3] = Pharmacokinetic evaluation of compounds in dogs; format: in vivo; conditions: dog, plasma, Beagle dogs
Description: Purpose of assay: To assay the pharmacokinetic data of the compounds in Beagle dogs in vivo.
(§1) Compound 014 was mixed with vehicle 20% DMSO/60% PEG400/20% (10% HP-β-CD in water), and the mixture was vortexed and sonicated to give a clear solution of 4 mg/mL. The candidate compound solutions were administered intravenously. Whole blood was collected for a certain period of time to prepare plasma. The drug concentration was analyzed by LC-MS/MS method, and pharmacokinetic parameters were calculated.
as §1, with “mixed (15 mg/mL)” for “mixed”, “give solutions” for “give a clear solution”, “of 6 mg/mL to 15” for “of 4”, “administered orally.” for “administered intravenously.”

[4] = system: human colon cancer GP2D xenograft tumor; assay: In vivo pharmacodynamic study, GP2D xenograft tumor model in Balb/c nude mouse; conditions: PO
Description: An xenograft tumor model in GP2D Balb/c nude mouse:
Assay method: A Balb/c nude mouse model of subcutaneously xenograft tumor of human colon cancer GP2D cells was established. 0.2 mL (2×10^6) of GP2D cells (Matrigel was added, and volume ratio was 1:1) were inoculated subcutaneously on the right back of each mouse. When the average tumor volume reached 149 mm^3, the administration was started by group, with 6 mice in each group. On the day of the assay, the animals were administered the corresponding drugs according to the corresponding groups. The first group G1 was set as a negative control group, which was given 5% DMSO+95%(10% HP-β-CD) alone by gavage administration. The second group G2 to the fifth group G5 were given compound 014, and the dosage and protocol of administration were shown in Table 19.
During the assay, the body weight of animals and the tumor size were measured twice a week. Meanwhile, clinical symptoms of animals were observed and recorded every day. Each administration was referenced to the most recent body weight of animals.
The length (a) and width (b) of a tumor were measured with a digital vernier caliper. The calculation formula of tumor volume (TV) was: TV=a×b^2/2.

[5] = system: plasma protein; assay: Plasma protein binding (PPB), equilibrium dialysis, H plasma; format: in vitro ADME, human; conditions: 2 μM, 4 hr dialysis
Description: (§2) Assay procedure: 995 μL of blank plasma of various genera were weighed, and 5 μL of assay compound working solution (400 μM) or warfarin working solution (400 μM) was added so that the final concentrations of the assay compound and warfarin in plasma sample were each 2 μM. The samples were mixed thoroughly. The final concentration of DMSO (the organic phase) was 0.5%. 50 μL of the plasma samples of the assay compound and warfarin were pipetted to a sample receiving plate (in triplicate), and the corresponding volume of corresponding blank plasma or buffer was added immediately, so that the final volume in each sample well was 100 μL, wherein the volume ratio of plasma:dialysis buffer was 1:1. 500 μL of stop solution was then added to these samples. These samples were used as T0 samples for determination of recovery and stability. […] All samples were subjected to protein precipitation, and then analyzed by LC/MS/MS. Bound rate and recovery rate of protein were calculated using the following formulae: % Unbound=100*F/T % Bound=100−% Unbound, % Recovery=100*(F+T)/T0 (wherein F is the peak area ratio of the compound in the dialysate after 4 h of dialysis; T is the peak area ratio of the compound in the plasma after 4 h of dialysis; T0 is the peak area ratio of the compound in the plasma sample at time zero).

[6] = system: plasma protein; assay: Plasma protein binding (PPB), equilibrium dialysis, C plasma; format: in vitro ADME, monkey; conditions: 2 μM, 4 hr dialysis
Description: as §2

## C#Cc1c(F)ccc2cc(N)cc(-c3ccc4c(N5CC6CCC(C5)N6)nc(OC[C@@]56CCCN5C[C@H](F)C6)nc4c3F)c12 [Compound 014]
[1]
  IC50: 0.43 nM
[2]
  IC50: 12 nM
[3]; IV, 1.56 mg/kg
  AUC(0-inf): 0.15 µM·h
  C0: 971 nM
  Vd: 5.89 L/kg
  clearance: 271 mL/min/kg
  half-life: 0.56 h
[3]; PO, 32.1 mg/kg
  AUC(0-inf): 0.969 µM·h
  Cmax: 439 nM
  bioavailability: 16.9%
  half-life: 10.8 h
[4]; G2, 25 mg/kg, BID*22, at day 14
  Tumor volume inhibition rate TGI: 84.2%
[4]; G3, 50 mg/kg, BID*22, at day 14
  Tumor volume inhibition rate TGI: 89.4%
[4]; G4, 150 mg/kg, BID*22, at day 14
  Tumor volume inhibition rate TGI: 97.3%
[4]; G5, 150 mg/kg, QD*22
  Tumor volume inhibition rate TGI: 91.4%
[5]
  Unbound PPB H: 18.5%
[6]
  Unbound PPB C: 2.8%

Source: US20240174692A1, “PYRIMIDINE AROMATIC RING COMPOUNDS” (Medshine Discovery Inc., priority 2021, published 2024)
